# Read-outs that look alike come from different tables or passages of the source.
# Key:
# [1] = biological target: human farnesyltransferase (hFTase) (Homo sapiens, UniProt P49354+P49356); assay: In vitro hFTase inhibition: incorporation of [3H]FPP into recombinant H-Ras-CVLS; format: biochemical; details: for selectivity (ratio of GGTase-I to FTase IC50s): GGTase-I IC50 / hFTase IC50; for fold improvement in hFTase inhibitory activity relative to 1az: relative to parent 1az
# [2] = system: farnesylation of H-Ras in oncogenic H-Ras-transformed NIH3T3 cells; assay: Whole cell inhibition of farnesylation; format: cell-based; details: Mus musculus
smiles,measurement,setting,value
"Cn1cnc(S(=O)(=O)N(CCN(Cc2cncn2C)c2ccc(C#N)nc2)CC2CCN(c3ncccn3)CC2)c1 [19b, N-(2-((2-Cyanopyridin-5-yl)((1-methyl-1H-imidazol-5-yl)methyl)-amino)ethyl)-1-methyl-N-((1-(pyrimidin-2-yl)piperidin-4-yl)methyl)-1H-imidazole-4-sulfonamide]",selectivity (ratio of GGTase-I to FTase IC50s),[1],>19
Cn1cnc(S(=O)(=O)N(CCN(Cc2cncn2C)c2ccc(C#N)cc2)CC2CCCCC2)c1 [1ax],IC50,"[2]; NIH3T3, read-out: processing IC50 (μM) H-Ras",0.1 ± 0.07 µM
same,IC50,"[2]; NIH3T3, read-out: whole cell H-Ras processing IC50",~0.09 µM
same,GGTase-I/FTase selectivity,[1]; selectivity for hFTase over GGTase-I,about 9 fold
Cn1cnc(S(=O)(=O)N(CCN(Cc2cncn2C)c2ccc(C#N)cc2)Cc2ccc(-n3cccc3)cc2)c1 [1av],fold improvement of in vitro hFTase inhibition relative to 1au,[1]; relative to 1au,approximately 4 fold
"Cn1cnc(S(=O)(=O)N(CCN(Cc2cncn2C)c2ccc(C#N)cc2)Cc2ccsc2)c1 [1ai, [N-(Thiophen-3-ylmethyl), N-{2-[(4-Cyanophenyl)-(3-methyl-3H-imidazol-4-ylmethyl)-amino]-ethyl}] 1-Methyl-1H-imidazole-4-sulfonamide]",times as potent against hFTase as isomeric 1ak,[1]; relative to 1ak,more than 34 times
Cn1cnc(S(=O)(=O)N(CCN(Cc2cncn2C)c2ccc(C#N)cc2)Cc2ccncc2)c1 [1af],selectivity (ratio of GGTase-I to FTase IC50s),[1],>139
Cn1cnc(S(=O)(=O)N(CCN(Cc2cncn2C)c2ccc(C#N)cc2)CC2CCN(C(=O)OC(C)(C)C)CC2)c1 [1ay],fold drop in hFTase inhibition relative to 1ax,[1]; relative to 1ax,> 60 fold
Cn1cnc(S(=O)(=O)N(CCCN(Cc2cncn2C)c2ccc(C#N)cc2)Cc2ccccc2)c1 [20a],fold drop in hFTase inhibitory activity relative to 1a,[1]; relative to 1a,> 7 fold
Cn1cnc(S(=O)(=O)N(CCN(Cc2cncn2C)c2ccc(C#N)cc2)CC2CCN(c3ncccn3)CC2)c1 [1az],fold recovery of hFTase activity relative to 1ay,[1]; relative to 1ay,more than 7 fold
"Cn1cnc(S(=O)(=O)N(CCN(Cc2cncn2C)c2ccc(C#N)cc2F)CC2CCN(c3ncccn3)CC2)c1 [19f, [N-{2-[(2-Fluoro-4-cyanophenyl)-(3-methyl-3H-imidazol-4-ylmethyl)-amino]-ethyl}, N-{N-(2-Pyrimidinyl)-piperidin-4-ylmethyl}] 1-Methyl-1H-imidazole-4-sulfonamide]",fold improvement in hFTase inhibitory activity relative to 1az,[1],approximately 8 fold
"Cn1cnc(S(=O)(=O)N(CCN(Cc2cncn2C)c2ccc(C#N)cc2Cl)CC2CCN(c3ncccn3)CC2)c1 [19a, [N-{2-[(2-Chloro-4-cyanophenyl)-(3-methyl-3H-imidazol-4-ylmethyl)-amino]-ethyl}, N-{N-(2-Pyrimidinyl)-piperidin-4-ylmethyl}] 1-Methyl-1H-imidazole-4-sulfonamide]",selectivity (ratio of GGTase-I to FTase IC50s),[1],>18
"Cc1c(CN(CCN(Cc2cncn2C)c2ccc(C#N)cc2)S(=O)(=O)c2cn(C)cn2)cnn1C [1an, [N-(1,3,5-Trimethyl-1H-pyrazol-4-ylmethyl), N-{2-[(4-Cyanophenyl)-(3-methyl-3H-imidazol-4-ylmethyl)-amino]-ethyl}] 1-Methyl-1H-imidazole-4-sulfonamide]",selectivity (ratio of GGTase-I to FTase IC50s),[1],>1.9
"Cn1cnc(S(=O)(=O)N(CCN(Cc2cncn2C)c2ccc(C#N)c(F)c2)CC2CCN(c3ncccn3)CC2)c1 [19e, [N-{2-[(3-Fluoro-4-cyanophenyl)-(3-methyl-3H-imidazol-4-ylmethyl)-amino]-ethyl}, N-{N-(2-Pyrimidinyl)-piperidin-4-ylmethyl}] 1-Methyl-1H-imidazole-4-sulfonamide]",fold improvement in hFTase inhibitory activity relative to 1az,[1],2 fold
